Reference: US20230129485A1, “SYSTEM AND METHOD FOR DETERMINING MATERIAL PROPERTIES OF MOLECULAR SYSTEMS FROM AN AB-INITIO PARAMETERIZED FORCE-FIELD” (InterX, Inc., priority 2021, published 2023)
Like-named read-outs stand apart in the source and are kept apart here.

What was measured:
[1] = Free energy of hydration predicted with the QM-parameterized force field model (ARROW FF), classical MD and PIMD simulation in a water box; conditions: for Arrow PIMD8 Error: absolute error vs Exp (hydration); for Arrow error: Table 5, error of Arrow PIMD8 hydration free energy vs experiment
Procedure, shortened: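 Classical and PIMD runs (MTS integrator, MTTK barostat at 1 atm) followed minimization and 50 ps equilibration, with 1 ns NPT production per window. Fifteen unequally spaced lambda windows removed all solute-solvent interactions simultaneously in a 32 Å water box. Hydration free energy computed by Bennett acceptance ratio and thermodynamic integration.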

[2] = Free energy of hydration by COSMO implicit solvent model (MolPro ver. 2012); conditions: absolute error vs Exp (hydration)
Procedure, shortened: (§1)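 Implicit-solvent predictions of hydration free energy. MolPro supplied the COSMO solvation energies across the dataset. Predicted SMD and PCM values were received rather than computed here. Coverage for SMD, PCM and COSMO-RS matches the QM-parameterized force-field subset.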

[3] = Free energy of hydration by Free Energy Machine Learning Model (FML); conditions: absolute error vs Exp (hydration)
Excerpt: Machine learning models can be used for free energy determination.

[4] = experimental, cited from earlier work; for Exp (hydration): Table 5
[5] = Free energy of hydration by Solvation Model Dielectric (SMD) implicit solvent model; conditions: absolute error vs Exp (hydration)
Procedure, shortened: as §1

[6] = Free energy of hydration by Polarizable Continuum Model (PCM); conditions: absolute error vs Exp (hydration)
Procedure, shortened: as §1

[7] = Free energy of hydration by COSMO-RS
Procedure, shortened: as §1

[8] = implicit solvent model, values received; cited from earlier work
[9] = implicit solvent model, values received; cited from earlier work; remark: listed apart in the source
[10] = Free energy of solvation in cyclohexane predicted with the QM-parameterized force field model (ARROW FF), MD and PIMD; conditions: Table 4; for CHEX Arrow MD Error: error of MD cyclohexane solvation free energy vs experiment; for CHEX Arrow PIMD4 Error: error of PIMD4 cyclohexane solvation free energy vs experiment
Procedure, shortened: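 Solute–cyclohexane interactions decoupled over 15 λ points with soft-core scaling, in MD and path-integral simulations under NPT at 1 atm using PME electrostatics and 9 Å cutoffs. Each window had 50 ps equilibration and 1 ns production; free energies from BAR and TI.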

[11] = CHEX/H2O partition coefficient (log D) predicted with the QM-parameterized force field model (ARROW FF)
Procedure, shortened: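 Cyclohexane/water partition coefficients were predicted by molecular simulation with a QM-parameterized force field, with bonded force constants and equilibrium values fitted to MP2/aug-cc-pVTZ energies. Solutes carried neutral functional groups, and results from four independent groups were averaged.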

[12] = Free energy of hydration predicted by General Amber Force Field (GAFF), from literature; conditions: Table 5; error of GAFF hydration free energy vs experiment
[13] = Free energy of hydration predicted by polarizable AMOEBA force field, from literature; conditions: Table 5; error of AMOEBA hydration free energy vs experiment
[14] = experimental, cited from earlier work
[15] = Table 5; free energy of hydration, GAFF prediction taken from literature; cited from earlier work
[16] = Table 5; free energy of hydration, AMOEBA prediction taken from literature; cited from earlier work
[17] = CHEX/H2O partition coefficient, experimental, cited from earlier work; for Exp (log D): Table 3; for logD Exp (logD): Table 4
[18] = Table 3, absolute error of MD hydration free energy vs experiment
[19] = Table 3, absolute error of PIMD8 hydration free energy vs experiment
[20] = Table 3, free energy of hydration
[21] = Table 4, error of MD hydration free energy vs experiment
[22] = Table 4, error of PIMD8 hydration free energy vs experiment
[23] = Table 3, free energy of solvation in cyclohexane
[24] = Table 4, solvation free energy in cyclohexane
[25] = Table 4, error of MD logD vs experiment
[26] = Table 4, error of PIMD logD vs experiment
[27] = Table 4, neutral amino-acid analogues

CCCC(C)O (stereo not shown) [2-Pentanol]
water Arrow MD Error [1, 18]: 1.68 kcal/mol
water Arrow PIMD8 Error [1, 19]: 0.08 kcal/mol
Arrow PIMD8 Error [1]: 0.08 kcal/mol
COSMO/Molpro Error [2]: 1.38 kcal/mol
FML error [3]: 0.40 kcal/mol
water Exp (hydration) [4, 20]: -4.39 kcal/mol

C1CCCC1 [Cyctopentane]
Arrow PIMD8 Error [1]: 0.12 kcal/mol
SMD Error [5]: 0.10 kcal/mol
PCM Error [6]: 1.40 kcal/mol
COSMO-RS error [7]: 0.17 kcal/mol
FML error [3]: 0.32 kcal/mol
SMD free energy of hydration [8]: 1.30 kcal/mol
PCM free energy of hydration [9]: -0.20 kcal/mol

CO [Methanol]
water Arrow MD Error [1, 18]: 0.28 kcal/mol
water Arrow PIMD8 Error [1, 19]: 0.35 kcal/mol
water Arrow MD Error [1, 21]: 0.28 kcal/mol
water Arrow PIMD8 Error [1, 22]: 0.35 kcal/mol
Arrow error [1]: 0.33 kcal/mol
Arrow PIMD8 Error [1]: 0.35 kcal/mol
CHEX Arrow MD Error [10]: 0.42 kcal/mol
CHEX Arrow PIMD4 Error [10]: 0.24 kcal/mol
log D Arrow MD Error [11]: 0.10
log D Arrow PIMD Error [11]: 0.43
logD Arrow MD Error [11]: 0.10
logD Arrow PIMD Error [11]: 0.43
GAFF error [12]: 0.74 kcal/mol
AMOEBA error [13]: 0.32 kcal/mol
COSMO/Molpro Error [2]: 1.37 kcal/mol
SMD Error [5]: 0.91 kcal/mol
PCM Error [6]: 1.91 kcal/mol
COSMO-RS error [7]: 0.18 kcal/mol
CHEX Exp (solvation) [14, 23]: -1.29 kcal/mol
CHEX Exp (solvation) [14, 24]: -1.29 kcal/mol
GAFF [15]: -4.37 kcal/mol
AMOEBA [16]: -4.79 kcal/mol
Exp (log D) [17]: −2.80
logD Exp (logD) [17]: −2.80

CS [MethaneThiol]
water Arrow MD Error [1, 18]: 0.79 kcal/mol
water Arrow PIMD8 Error [1, 19]: 0.43 kcal/mol
water Arrow MD Error [1, 21]: 0.79 kcal/mol
Arrow error [1]: 0.43 kcal/mol
Arrow PIMD8 Error [1]: 0.43 kcal/mol
CHEX Arrow MD Error [10]: 0.39 kcal/mol
CHEX Arrow PIMD4 Error [10]: 0.30 kcal/mol
logD Arrow MD Error [11, 25]: 0.29
logD Arrow PIMD Error [11, 26]: 0.09
GAFF error [12]: 0.41 kcal/mol
AMOEBA error [13]: 0.98 kcal/mol
COSMO/Molpro Error [2]: 2.71 kcal/mol
SMD Error [5]: 0.42 kcal/mol
PCM Error [6]: 0.88 kcal/mol
water Exp (hydration) [4, 20]: -1.219 kcal/mol
water Exp (hydration) [4, 27]: -1.219 kcal/mol
Exp (hydration) ([4]; free energy of hydration): -1.24 kcal/mol
Exp (hydration) free energy of hydration [4]: -1.22 kcal/mol
CHEX Exp (solvation) [14, 24]: -2.46 kcal/mol
GAFF [15]: -0.83 kcal/mol
AMOEBA [16]: -0.26 kcal/mol
SMD free energy of hydration [8]: -0.80 kcal/mol
PCM free energy of hydration [9]: -2.10 kcal/mol
logD Exp (logD) [17]: 0.91

C1CC1 [Cyclopropane]
water Arrow MD Error [1, 18]: 0.30 kcal/mol
water Arrow PIMD8 Error [1, 19]: 0.29 kcal/mol
Arrow PIMD8 Error [1]: 0.29 kcal/mol
COSMO/Molpro Error [2]: 2.05 kcal/mol
SMD Error [5]: 0.65 kcal/mol
PCM Error [6]: 1.35 kcal/mol
COSMO-RS error [7]: 0.40 kcal/mol
FML error [3]: 0.76 kcal/mol
water Exp (hydration) [4, 20]: 0.75 kcal/mol
SMD free energy of hydration [8]: 0.10 kcal/mol
PCM free energy of hydration [9]: -0.60 kcal/mol

CCC(C)O (stereo not shown) [2-Butanol]
water Arrow MD Error [1, 18]: 1.41 kcal/mol
water Arrow PIMD8 Error [1, 19]: 0.08 kcal/mol
Arrow PIMD8 Error [1]: 0.08 kcal/mol
COSMO/Molpro Error [2]: 1.11 kcal/mol
COSMO-RS error [7]: 0.77 kcal/mol
FML error [3]: 0.61 kcal/mol
water Exp (hydration) [4, 20]: -4.58 kcal/mol

CCCC [Butane]
water Arrow MD Error [1, 18]: 0.70 kcal/mol
water Arrow PIMD8 Error [1, 19]: 0.04 kcal/mol
water Arrow MD Error [1, 21]: 0.70 kcal/mol
water Arrow PIMD8 Error [1, 22]: 0.04 kcal/mol
Arrow error [1]: 0.04 kcal/mol
Arrow PIMD8 Error [1]: 0.04 kcal/mol
CHEX Arrow MD Error [10]: 0.46 kcal/mol
CHEX Arrow PIMD4 Error [10]: 0.20 kcal/mol
log D Arrow MD Error ([11]; Table 3, absolute error of MD log D vs experiment): 0.18
log D Arrow PIMD Error ([11]; Table 3, absolute error of PIMD log D vs experiment): 0.17
logD Arrow MD Error [11, 25]: 0.18
logD Arrow PIMD Error [11, 26]: 0.17
GAFF error [12]: 0.44 kcal/mol
AMOEBA error [13]: 0.99 kcal/mol
COSMO/Molpro Error [2]: 2.65 kcal/mol
SMD Error [5]: 0.10 kcal/mol
PCM Error [6]: 2.30 kcal/mol
COSMO-RS error [7]: 0.03 kcal/mol
water Exp (hydration) [4, 20]: 2.10 kcal/mol
water Exp (hydration) [4, 27]: 2.10 kcal/mol
Exp (hydration) ([4]; free energy of hydration): 2.10 kcal/mol
CHEX Exp (solvation) [14, 23]: -2.72 kcal/mol
CHEX Exp (solvation) [14, 24]: -2.72 kcal/mol
GAFF [15]: 2.54 kcal/mol
AMOEBA [16]: 1.11 kcal/mol
SMD free energy of hydration [8]: 2.00 kcal/mol
PCM free energy of hydration [9]: -0.20 kcal/mol
Exp (log D) [17]: 3.54
logD Exp (logD) [17]: 3.54

CCC(O)CC [3-Pentanol]
water Arrow MD Error [1, 18]: 1.36 kcal/mol
water Arrow PIMD8 Error [1, 19]: 0.15 kcal/mol
Arrow PIMD8 Error [1]: 0.15 kcal/mol
COSMO/Molpro Error [2]: 1.01 kcal/mol
FML error [3]: 0.58 kcal/mol
water Exp (hydration) [4, 20]: -4.35 kcal/mol

CC=O [acetaldehyde]
water Arrow MD Error [1, 18]: 0.18 kcal/mol
water Arrow PIMD8 Error [1, 19]: 0.27 kcal/mol
Arrow PIMD8 Error [1]: 0.27 kcal/mol
COSMO/Molpro Error [2]: 3.97 kcal/mol
SMD Error [5]: 0.30 kcal/mol
PCM Error [6]: 0.20 kcal/mol
COSMO-RS error [7]: 0.18 kcal/mol
FML error [3]: 0.03 kcal/mol

CCSC [EthylMethylSulfide]
water Arrow MD Error [1, 18]: 0.47 kcal/mol
water Arrow PIMD8 Error [1, 19]: 0.11 kcal/mol
water Arrow MD Error [1, 21]: 0.47 kcal/mol
water Arrow PIMD8 Error [1, 22]: 0.11 kcal/mol
Arrow error [1]: 0.11 kcal/mol
Arrow PIMD8 Error [1]: 0.11 kcal/mol
CHEX Arrow MD Error [10]: 0.83 kcal/mol
CHEX Arrow PIMD4 Error [10]: 0.51 kcal/mol
log D Arrow MD Error [11]: 0.27
log D Arrow PIMD Error [11]: 0.29
logD Arrow MD Error [11]: 0.27
logD Arrow PIMD Error [11]: 0.29
GAFF error [12]: 1.84 kcal/mol
AMOEBA error [13]: 0.48 kcal/mol
COSMO/Molpro Error [2]: 2.70 kcal/mol
water Exp (hydration) [4, 20]: -1.5 kcal/mol
water Exp (hydration) [4, 27]: -1.5 kcal/mol
Exp (hydration) ([4]; free energy of hydration): -1.50 kcal/mol
CHEX Exp (solvation) [14, 23]: -3.78 kcal/mol
CHEX Exp (solvation) [14, 24]: -3.78 kcal/mol
GAFF [15]: 0.34 kcal/mol
AMOEBA [16]: -1.98 kcal/mol
Exp (log D) [17]: 1.67
logD Exp (logD) [17]: 1.67

Cc1ccccc1 [Toluene]
water Arrow MD Error [1, 18]: 0.83 kcal/mol
water Arrow PIMD8 Error [1, 19]: 0.10 kcal/mol
water Arrow MD Error [1, 21]: 0.83 kcal/mol
water Arrow PIMD8 Error [1, 22]: 0.10 kcal/mol
Arrow error [1]: 0.10 kcal/mol
Arrow PIMD8 Error [1]: 0.10 kcal/mol
CHEX Arrow MD Error [10]: 0.94 kcal/mol
CHEX Arrow PIMD4 Error [10]: 0.62 kcal/mol
GAFF error [12]: 0.18 kcal/mol
AMOEBA error [13]: 0.64 kcal/mol
COSMO/Molpro Error [2]: 2.41 kcal/mol
SMD Error [5]: 0.59 kcal/mol
PCM Error [6]: 0.71 kcal/mol
COSMO-RS error [7]: 0.12 kcal/mol
water Exp (hydration) [4, 20]: -0.89 kcal/mol
water Exp (hydration) [4, 27]: -0.89 kcal/mol
Exp (hydration) ([4]; free energy of hydration): -0.89 kcal/mol
CHEX Exp (solvation) [14, 23]: -4.90 kcal/mol
CHEX Exp (solvation) [14, 24]: -4.90 kcal/mol
GAFF [15]: -0.71 kcal/mol
AMOEBA [16]: -1.53 kcal/mol
SMD free energy of hydration [8]: -0.30 kcal/mol
PCM free energy of hydration [9]: -1.60 kcal/mol
